The values below come from ChEMBL document CHEMBL2010638, “Synthesis and evaluation of disulfide bond mimetics of amylin-(1-8) as agents to treat osteoporosis” (Bioorg Med Chem, 2012).

The assay has as its system Calvarial osteoblast. Put plainly: Induction of osteoblast differentiation in rat fetal calvarial osteoblast assessed as [3H]thymidine incorporation at 10^-8 to 10^-10 after 6 hrs. The format is functional, cell-based. For orientation: Dividing cells build labelled thymidine or BrdU into new DNA.

Each structure is given as a SMILES string. Activity calls are given as the source filed them. The calls are words filed in the database; no cut-off is given here. *1 amine or outer side, *2 acyl side, *3 side chain or, on linkers, in order; H or OH if unused. Where a SMILES comes first, the peptide text is derived from it. Bridges are numbered along the chain shown (N, C = ends). Triazole bridges read from a SMILES are 1,4-linked. [ ]: non-standard residue; d: D form. Dap(N3) = [N-]=[N+]=NC[C@H](N)C(=O)O; oXylylene = c1ccc(C[*:2])c(C[*:1])c1; pXylylene = c1cc(C[*:2])ccc1C[*:1]; Pra = C#CC[C@H](N)C(=O)O; CH2CH2 = C(C[*:2])[*:1]; X2 = O=C(CC[*:2])[*:1]; X1 = C(C[*:1])C[*:2]

As for `C[C@H](NC(=O)[C@@H]1CSSC[C@H](NC(=O)[C@@H](N)CCCCN)C(=O)N[C@@H](CC(N)=O)C(=O)N[C@@H]([C@@H](C)O)C(=O)N[C@@H](C)C(=O)N[C@@H]([C@@H](C)O)C(=O)N1)C(N)=O` (H-KCNTATCA-NH2; disulfide 2-7), the result was Active.

With `C[C@H](NC(=O)[C@@H]1CSCCSC[C@H](NC(=O)[C@@H](N)CCCCN)C(=O)N[C@@H](CC(N)=O)C(=O)N[C@@H]([C@@H](C)O)C(=O)N[C@@H](C)C(=O)N[C@@H]([C@@H](C)O)C(=O)N1)C(N)=O` (H-KCNTATCA-NH2; linker 2-7 via CH2CH2), the result was inactive.

For the compound `C[C@H](NC(=O)[C@@H]1CSCCCSC[C@H](NC(=O)[C@@H](N)CCCCN)C(=O)N[C@@H](CC(N)=O)C(=O)N[C@@H]([C@@H](C)O)C(=O)N[C@@H](C)C(=O)N[C@@H]([C@@H](C)O)C(=O)N1)C(N)=O` (H-KCNTATCA-NH2; linker 2-7 via X1), the outcome was inactive.

For `C[C@H](NC(=O)[C@@H]1CSCc2ccccc2CSC[C@H](NC(=O)[C@@H](N)CCCCN)C(=O)N[C@@H](CC(N)=O)C(=O)N[C@@H]([C@@H](C)O)C(=O)N[C@@H](C)C(=O)N[C@@H]([C@@H](C)O)C(=O)N1)C(N)=O` (H-KCNTATCA-NH2; linker 2-7 via oXylylene), the outcome was inactive.

`C[C@H](NC(=O)[C@@H]1CSCc2ccc(cc2)CSC[C@H](NC(=O)[C@@H](N)CCCCN)C(=O)N[C@@H](CC(N)=O)C(=O)N[C@@H]([C@@H](C)O)C(=O)N[C@@H](C)C(=O)N[C@@H]([C@@H](C)O)C(=O)N1)C(N)=O` (H-KCNTATCA-NH2; linker 2-7 via pXylylene): the result was Active.

On to `C[C@H](NC(=O)[C@@H]1CSCCC(=O)NCCCC[C@H](NC(=O)[C@@H](N)CCCCN)C(=O)N[C@@H](CC(N)=O)C(=O)N[C@@H]([C@@H](C)O)C(=O)N[C@@H](C)C(=O)N[C@@H]([C@@H](C)O)C(=O)N1)C(N)=O` (H-KKNTATCA-NH2; linker 2-7 via X2), for which the outcome was inactive.

Consider `C[C@H](NC(=O)[C@@H]1Cn2cc(nn2)C[C@H](NC(=O)[C@@H](N)CCCCN)C(=O)N[C@@H](CC(N)=O)C(=O)N[C@@H]([C@@H](C)O)C(=O)N[C@@H](C)C(=O)N[C@@H]([C@@H](C)O)C(=O)N1)C(N)=O` (H-K[Pra]NTAT[Dap(N3)]A-NH2; triazole 2-7), for which the outcome was inactive.
